Patent publication US10072034B2, “Kinase inhibitors” (Respivert Limited, priority 2016, dated 2018)
In brackets after ≈: the same amount, converted by molar mass. Read-outs that look alike come from different tables or passages of the source.

Columns and labels:
[1] = Solubility in fasted-state simulated colonic fluid (FaSSCoF) at pH 6.5; type: physicochemical; settings: pH 6.5, 25° C.; for solubility thermodynamic at 24 h: fasted-state simulated colonic fluid (FaSSCoF), 25 °C, pH 6.5, fassgf or other biorelevant, thermodynamic from solid
Experimental: The solubilities of compounds of the invention in FaSSCoF at pH 6.5 are determined using a modification of a previously-reported procedure (Vertzoni, M., et al. Pharm. Res. 2010, 27, 2187-2196). In place of the bile salt extract employed in the original procedure (which extract is no longer available), the modified procedure uses a mixture of sodium taurocholate (0.15 g), glycocholic acid (0.15 g), ursodeoxycholic acid (0.05 g), cholic acid (0.05 g), and glycodeoxycholic acid (0.05 g). These five bile acids are ground together with a mortar and pestle to produce a fine white powder that is incorporated into the FaSSCoF, as outlined below.
FaSSCoF medium: Tris(hydroxymethyl)aminomethane (Tris; 0.275 g) and maleic acid (0.44 g) are dissolved in water (35 mL) to give a solution whose pH is adjusted to 6.5 by treatment with 0.5M NaOH (ca. 12 mL). The solution is then made up to 50 mL with water. A portion of this Tris/maleate buffer solution (ca. 25 mL) is added to a 0.5 L round-bottomed flask, before being treated with 0.00565 g of the bile acid mixture described above. Solutions of phosphatidylcholine (0.0111 g) in DCM (0.15 mL) and palmitic acid (0.0013 g) in DCM (0.15 mL) are added, then the organic solvent is evaporated off under reduced pressure at 40° C. until a clear solution, with no perceptible DCM odour, is achieved. The volume of the evaporated solution is adjusted to 50 mL by addition of the remainder of Tris/maleate buffer, then BSA (0.115 g) is added, before being dissolved by gentle agitation.
Solubility Determination: Test compounds are suspended in the pH 6.5 FaSSCoF medium to give a maximum final concentration of 2-10 mg/mL. The suspensions are equilibrated at 25° C. for 24 h, before being filtered through a glass fibre C filter. The filtrates are then diluted as appropriate for injection and quantification by HPLC with reference to a standard. Different volumes of the standard, diluted and undiluted sample solutions are injected and the solubilities are calculated using the peak areas determined by integration of the peak found at the same retention time as the principal peak in the standard injection.

[2] = tested on: SCID mice injected with CD45RBhigh cells; assay: Adoptive transfer in mice (T cell driven model of colonic inflammation; assay (v)); type: in vivo; settings: for % Inhibition (of induction window between naïve and vehicle animals, colon weight:length) / Colon weight:length: 3 mg/kg BID oral gavage, day 14 to day 49 (Reference Compound A lowered to 0.6 mg/kg on day 27)
Experimental: On Study day 0, female Balb/C mice are terminated and spleens obtained for CD45RB^high cell isolation (Using SCID IBD cell Separation protocol). Approximately 4×10^5 cells/mL CD45RB^high cells are then injected intraperitoneally (100 μL/mouse) into female SCID animals. On study day 14, mice are weighed and random/zed into treatment groups based on body weight. On Day 14, compounds are administered BID, via oral gavage, in 5% polyoxyethylene 40 stearate in 20 mM pH 7.8 aqueous phosphate buffer in a dose volume of 5 mL/kg. Treatment continues until study day 49, at which point the animals are necropsied 4 hours after the morning administration. The colon length and weight are recorded and used as a secondary endpoint in the study as a measurement of colon oedema. The colon is then divided into six cross-sections, four of which are used for histopathology scoring (primary endpoint) and two are homogenised for cytokine analysis. Data shown is the % inhibition of the induction window between naïve animals and vehicle animals, where higher inhibition implies closer to the non-diseased, naïve, phenotype.

[3] = Microcentrifuge dissolution test 1): transfer from intestinal buffer (IB) to colonic buffer (CB); type: physicochemical; settings: PBS pH 6.5, 37° C.
[4] = Microcentrifuge dissolution test 2): direct dosing into intestinal media containing simulated bile-salt micelles (IB-SIF); type: physicochemical; settings: for Concentration, IB Timepoint 0 min / Concentration, IB Timepoint 4 min / Concentration, IB Timepoint 10 min / Concentration, IB Timepoint 20 min / Concentration, IB Timepoint 40 min / Concentration, IB Timepoint 90 min / Concentration, IB Timepoint 1,200 min / Additional concentration, UCF Timepoint 90 min: IB-SIF; for Concentration, IB Timepoint 0 min: pH 6.5, 0 min; for Concentration, IB Timepoint 4 min: pH 6.5, 4 min; for Concentration, IB Timepoint 10 min: pH 6.5, 10 min; for Concentration, IB Timepoint 20 min: pH 6.5, 20 min; for Concentration, IB Timepoint 40 min: pH 6.5, 40 min; for Concentration, IB Timepoint 90 min: pH 6.5, 90 min; for Concentration, IB Timepoint 1,200 min: pH 6.5, 1,200 min; for Additional concentration, UCF Timepoint 90 min / Additional concentration, UCF Timepoint 1,200 min: after ultracentrifugation (free drug + drug in micelles); for Additional concentration, UCF Timepoint 1,200 min: IB-SIF, 1,200 min
Experimental: In vitro non-sink dissolution performance of the Compound of Example 3 was evaluated alongside Reference Compounds A and B employing microcentrifuge dissolution tests in which samples were either 1) transferred from intestinal buffer (IB) to colonic buffer (CB) or 2) dosed directly into intestinal media containing simulated bile-salt micelles (IB-SIF). Dissolution performance of the compounds at various timepoints was determined by centrifugation and analysis of the supernatant concentrations by off-line reverse-phase HPLC analysis.
Test compounds (0.45 mg±0.05 mg) were weighed into a microcentrifuge tube then 1.800 mL of IB-SIF receptor solution—prepared previously by dissolution of 0.250 g SIF powder (Biorelevant.com) in 50 mL of pH 6.5 PBS warmed to 37° C.—was added. A timer was started and the sample tubes were vortexed at the maximum setting for 1 minute. When the timer read 2, 8, 18, 38, 88 and 1,198 min—corresponding to the 4, 10, 20, 40, 90 and 1,200 min timepoints, respectively—the sample tubes were centrifuged for 1 min at 15,800 RCF. Then, at each timepoint, the supernatant (50 μL) was added to diluent {250 μL of 75/25 THF/Water (v/v)} and the compound concentrations were measured by off-line HPLC analysis (Table 7a). To determine the concentration of free drug+drug in micelles, the HPLC samples for the 90 and 1,200 min timepoints were additionally centrifuged for 8 min at 80,000 rpm at 37° C. in an ultracentrifuge (UCF), then the supernatant (50 μL) was added to diluent {250 PL of 75/25 THF/Water (v/v)} and the compound concentrations were measured by off-line HPLC analysis (Table 7b).

[5] = Run 1, read-out: pH 6.5 FaSSCoF Solubility Run 1
[6] = Run 2, read-out: pH 6.5 FaSSCoF Solubility Run 2

SMILES | solubility thermodynamic at 24 h [1, 5] | solubility thermodynamic at 24 h [1, 6] | % Inhibition (of induction window between naïve and vehicle animals, colon weight:length) [2] | Colon weight:length [2] | Activity compared to the two Reference Compounds (colon weight to length ratio) ([2]; simple aqueous-based vehicle) | Concentration, IB Timepoint −30 min [3] | Concentration, IB Timepoint 0 min [4] | Concentration, IB Timepoint 4 min [4] | Concentration, IB Timepoint 10 min [4] | Concentration, IB Timepoint 20 min [4] | Concentration, IB Timepoint 40 min [4] | Concentration, IB Timepoint 90 min [4] | Concentration, IB Timepoint 1,200 min [4] | Additional concentration, UCF Timepoint 90 min [4] | Additional concentration, UCF Timepoint 1,200 min [4] | pH 6.5 FaSSCoF Solubility Run 1 ([1]; 24 h, Run 1) | pH 6.5 FaSSCoF Solubility Run 2 ([1]; 24 h, Run 2)
COc1cc(Nc2cc(Oc3ccc(NC(=O)Nc4cc(C(C)(C)C)cc(NS(C)(=O)=O)c4OC)c4ccccc34)ccn2)cc(OCCOCCOCC(=O)O)c1 [Example 3] | 280 µg/mL (≈ 342 µM) | 200 µg/mL (≈ 245 µM) | 49% | 0.032 ± 0.004 | superior activity | 0 ng/mL | 0 ng/mL | 255.7 µg/mL | 255.9 µg/mL | 251.7 µg/mL | 249.2 µg/mL | 253.5 µg/mL | 239.0 µg/mL | 229.4 µg/mL | 169.9 µg/mL | – | –
COc1cc(Nc2nccc(Oc3ccc(NC(=O)Nc4cc(C(C)(C)C)cc(NS(C)(=O)=O)c4OC)c4ccccc34)n2)cc(OCCOCCOCCC(=O)O)c1 [Reference Compound A, 3-(2-(2-(3-((4-((4-(3-(5-(tert-butyl)-2-methoxy-3-(methylsulfonamido)phenyl)ureido)naphthalen-1-yl)oxy)-pyrimidin-2-yl)amino)-5-methoxyphenoxy)ethoxy)ethoxy)propanoic acid] | – | – | −14% | 0.047 ± 0.007 | – | 0 ng/mL | 0 ng/mL | 39.8 µg/mL | 63.4 µg/mL | 83.5 µg/mL | 96.5 µg/mL | 99.9 µg/mL | 101.0 µg/mL | 87.0 µg/mL | 88.8 µg/mL | 0.007 mg/mL | 0.007 mg/mL
C#Cc1cc(Nc2nccc(Oc3ccc(NC(=O)Nc4cc(C(C)(C)C)nn4-c4ccc(C)cc4)c4ccccc34)n2)cc(C(=O)NCCOCCOCCOC)c1 [Reference Compound B, 3-((4-((4-(3-(3-(tert-butyl)-1-(p-tolyl)-1H-pyrazol-5-yl)ureido)naphthalen-1-yl)oxy)pyrimidin-2-yl)amino)-5-ethynyl-N-(2-(2-(2-methoxyethoxy)ethoxy)ethyl)benzamide] | < 1 µg/mL | < 1 µg/mL | 11% | 0.041 ± 0.005 | – | 0 ng/mL | 0 ng/mL | 1.1 µg/mL | 0.9 µg/mL | 1.3 µg/mL | 1.0 µg/mL | 0.7 µg/mL | 3.0 µg/mL | 0.7 µg/mL | 2.9 µg/mL | – | –
